According to patent publication US20240025884A1 (Dong-A ST Co., Ltd., priority 2022, published 2024):

Each compound was assayed against GCN2 (Homo sapiens (Human), UniProt Q9P2K8) (assay: GCN2 Biochemical Assay (TR-FRET, GFP-eIF2S1 substrate phosphorylation)). Conditions: read-out: IC50 (GCN2 Inhibitory Activity).
How it was run: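 In-house GCN2 (1.6 nM 2× stock) phosphorylates GFP-eIF2S1 (50 nM 2× stock) with ATP (0.2 mM 2× stock) and tRNA, pH 7.5, 70 min at room temperature; 10-point 3.16-fold compound series. TR-FRET detection with Tb-anti-phospho antibody, 2–3 h, Ex 340/Em 490/520 nm; artifact plate spiked with phospho-substrate.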

GCN2, sequence (Q9P2K8 whole entry): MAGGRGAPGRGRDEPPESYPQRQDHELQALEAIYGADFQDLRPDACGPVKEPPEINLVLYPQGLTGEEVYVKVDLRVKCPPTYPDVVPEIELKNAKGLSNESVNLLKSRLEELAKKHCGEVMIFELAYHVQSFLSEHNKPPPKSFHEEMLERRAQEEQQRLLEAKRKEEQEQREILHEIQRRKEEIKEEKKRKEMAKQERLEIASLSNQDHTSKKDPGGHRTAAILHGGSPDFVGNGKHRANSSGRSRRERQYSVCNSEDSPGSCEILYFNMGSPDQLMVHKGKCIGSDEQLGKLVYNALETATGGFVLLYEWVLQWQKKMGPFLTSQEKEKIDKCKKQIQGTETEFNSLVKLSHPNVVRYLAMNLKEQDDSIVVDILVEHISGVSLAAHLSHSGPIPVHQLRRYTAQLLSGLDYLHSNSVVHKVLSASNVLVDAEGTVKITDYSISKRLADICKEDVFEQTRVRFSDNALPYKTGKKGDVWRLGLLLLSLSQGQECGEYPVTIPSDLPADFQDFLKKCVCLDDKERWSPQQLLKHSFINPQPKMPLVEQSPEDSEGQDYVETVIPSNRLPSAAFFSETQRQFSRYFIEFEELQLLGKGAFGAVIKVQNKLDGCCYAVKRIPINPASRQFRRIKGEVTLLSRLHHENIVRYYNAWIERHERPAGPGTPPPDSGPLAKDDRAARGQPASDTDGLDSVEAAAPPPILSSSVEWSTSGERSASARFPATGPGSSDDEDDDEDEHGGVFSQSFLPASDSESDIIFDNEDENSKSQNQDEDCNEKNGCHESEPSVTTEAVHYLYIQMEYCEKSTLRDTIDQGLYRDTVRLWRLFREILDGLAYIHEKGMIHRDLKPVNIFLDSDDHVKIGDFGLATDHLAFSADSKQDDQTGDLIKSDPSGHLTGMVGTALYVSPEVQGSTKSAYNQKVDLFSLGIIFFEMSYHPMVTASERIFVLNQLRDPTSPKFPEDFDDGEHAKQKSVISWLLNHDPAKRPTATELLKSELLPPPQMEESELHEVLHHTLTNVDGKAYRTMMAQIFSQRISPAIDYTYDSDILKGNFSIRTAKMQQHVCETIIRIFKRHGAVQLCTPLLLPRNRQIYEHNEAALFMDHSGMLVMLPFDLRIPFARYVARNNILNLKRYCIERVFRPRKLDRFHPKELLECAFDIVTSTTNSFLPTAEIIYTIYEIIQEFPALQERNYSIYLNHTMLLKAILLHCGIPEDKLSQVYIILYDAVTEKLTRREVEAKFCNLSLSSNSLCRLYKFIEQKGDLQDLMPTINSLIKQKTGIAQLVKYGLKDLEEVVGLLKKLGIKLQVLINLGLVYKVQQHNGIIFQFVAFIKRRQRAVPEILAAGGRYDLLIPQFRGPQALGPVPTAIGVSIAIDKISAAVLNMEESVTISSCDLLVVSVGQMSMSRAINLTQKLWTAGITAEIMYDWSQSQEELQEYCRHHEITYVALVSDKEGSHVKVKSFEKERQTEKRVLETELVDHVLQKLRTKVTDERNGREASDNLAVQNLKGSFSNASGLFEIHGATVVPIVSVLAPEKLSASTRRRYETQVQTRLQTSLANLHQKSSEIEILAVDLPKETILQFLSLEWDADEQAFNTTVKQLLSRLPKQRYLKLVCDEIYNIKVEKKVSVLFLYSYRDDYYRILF

First: Cc1cnc(Nc2cc(C)n(C)n2)nc1-c1c[nH]c2c(N3Cc4c(cccc4-c4cc(N)ncn4)C3=O)cccc12 [Example 456, 4-(6-aminopyrimidin-4-yl)-2-(3-(2-((1,5-dimethyl-1H-pyrazol-3-yl)amino)-5-methylpyrimidin-4-yl)-1H-indol-7-yl)isoindolin-1-one]
Second: Cc1cnc(Nc2cc(C)n(C)n2)nc1-c1c[nH]c2c(N3Cc4c(cccc4-c4ccccc4N)C3=O)cccc12 [Example 462, 4-(2-aminophenyl)-2-(3-(2-((1,5-dimethyl-1H-pyrazol-3-yl)amino)-5-methylpyrimidin-4-yl)-1H-indol-7-yl)isoindolin-1-one]
The IC50 of the first is lower: less than 10 nM for the first, 10 to 100 nM for the second.

First: Cc1cnc(Nc2cc(C)n(C)n2)nc1-c1c[nH]c2c(N3Cc4c(cccc4-c4cccc5[nH]ncc45)C3=O)cccc12 [Example 457, 2-(3-(2-((1,5-dimethyl-1H-pyrazol-3-yl)amino)-5-methylpyrimidin-4-yl)-1H-indol-7-yl)-4-(1H-indazol-4-yl)isoindolin-1-one]
Second: Cc1cnc(Nc2cc(C)n(C)n2)nc1-c1c[nH]c2c(N3Cc4c(cccc4-c4ccccc4C(=O)O)C3=O)cccc12 [Example 458, 2-(2-(3-(2-((1,5-dimethyl-1H-pyrazol-3-yl)amino)-5-methylpyrimidin-4-yl)-1H-indol-7-yl)-1-oxoisoindolin-4-yl)benzoic acid]
The IC50 of the first is lower: less than 10 nM for the first, 10 to 100 nM for the second.

`Cc1cnc(Nc2cc(C)n(C)n2)nc1-c1c[nH]c2c(N3Cc4c(cccc4-c4ccc(CO)cc4)C3=O)cccc12` [Example 460, 2-(3-(2-((1,5-dimethyl-1H-pyrazol-3-yl)amino)-5-methylpyrimidin-4-yl)-1H-indol-7-yl)-4-(4-(hydroxymethyl)phenyl)isoindolin-1-one] and `Cc1cnc(Nc2cc(C)n(C)n2)nc1-c1c[nH]c2c(N3Cc4c(cccc4-c4ccnc(CO)c4)C3=O)cccc12` [Example 472, 2-(3-(2-((1,5-dimethyl-1H-pyrazol-3-yl)amino)-5-methylpyrimidin-4-yl)-1H-indol-7-yl)-4-(2-(hydroxymethyl)pyridin-4-yl)isoindolin-1-one] cannot be ordered by IC50: less than 10 nM for the first, less than 10 nM for the second.

First: Cc1cnc(Nc2cc(C)n(C)n2)nc1-c1c[nH]c2c(N3Cc4c(cccc4-c4ccsc4)C3=O)cccc12 [Example 461, 2-(3-(2-((1,5-dimethyl-1H-pyrazol-3-yl)amino)-5-methylpyrimidin-4-yl)-1H-indol-7-yl)-4-(thiophen-3-yl)isoindolin-1-one]
Second: Cc1cnc(Nc2cc(C)n(C)n2)nc1-c1c[nH]c2c(N3Cc4c(cccc4-c4ccnc(C#N)c4)C3=O)cccc12 [Example 469, 4-(2-(3-(2-((1,5-dimethyl-1H-pyrazol-3-yl)amino)-5-methylpyrimidin-4-yl)-1H-indol-7-yl)-1-oxoisoindolin-4-yl)picolinonitrile]
The IC50 of the first is higher: 10 to 100 nM for the first, less than 10 nM for the second. The second is the more potent here.

First: COC(=O)c1ccccc1-c1cccc2c1CN(c1cccc3c(-c4nc(Nc5cc(C)n(C)n5)ncc4C)c[nH]c13)C2=O [Example 463, methyl 2-(2-(3-(2-((1,5-dimethyl-1H-pyrazol-3-yl)amino)-5-methylpyrimidin-4-yl)-1H-indol-7-yl)-1-oxoisoindolin-4-yl)benzoate]
Second: Cc1cnc(Nc2cc(C)n(C)n2)nc1-c1c[nH]c2c(N3Cc4c(cccc4-c4ccncc4CO)C3=O)cccc12 [Example 471]
The IC50 of the first is higher: 100 to 1000 nM for the first, less than 10 nM for the second. The second is the more potent here.

`Cc1cnc(Nc2cc(C)n(C)n2)nc1-c1c[nH]c2c(N3Cc4c(cccc4C4=CCN(C)CC4)C3=O)cccc12` [Example 464, 2-(3-(2-((1,5-dimethyl-1H-pyrazol-3-yl)amino)-5-methylpyrimidin-4-yl)-1H-indol-7-yl)-4-(i-methyl-1,2,3,6-tetrahydropyridin-4-yl)isoindolin-1-one] and `CC(=O)N1CC=C(c2cccc3c2CN(c2cccc4c(-c5nc(Nc6cc(C)n(C)n6)ncc5C)c[nH]c24)C3=O)CC1` [Example 466, 4-(1-acetyl-1,2,3,6-tetrahydropyridin-4-yl)-2-(3-(2-((1,5-dimethyl-1H-pyrazol-3-yl)amino)-5-methylpyrimidin-4-yl)-1H-indol-7-yl)isoindolin-1-one] cannot be ordered by IC50: less than 10 nM for the first, less than 10 nM for the second.

`Cc1cnc(Nc2cc(C)n(C)n2)nc1-c1c[nH]c2c(N3Cc4c(cccc4C4=CCN(S(C)(=O)=O)CC4)C3=O)cccc12` [Example 465, 2-(3-(2-((1,5-dimethyl-1H-pyrazol-3-yl)amino)-5-methylpyrimidin-4-yl)-1H-indol-7-yl)-4-(1-(methylsulfonyl)-1,2,3,6-tetrahydropyridin-4-yl)isoindolin-1-one] and `Cc1cnc(Nc2cc(C)n(C)n2)nc1-c1c[nH]c2c(N3Cc4c(cccc4C4=CCN(C(N)=O)CC4)C3=O)cccc12` [Example 467, 4-(2-(3-(2-((1,5-dimethyl-1H-pyrazol-3-yl)amino)-5-methylpyrimidin-4-yl)-1H-indol-7-yl)-1-oxoisoindolin-4-yl)-3,6-dihydropyridine-1(2H)-carboxamide] cannot be ordered by IC50: less than 10 nM for the first, less than 10 nM for the second.

`Cc1cnc(Nc2cc(C)n(C)n2)nc1-c1c[nH]c2c(N3Cc4c(cccc4C4=CCS(=O)(=O)CC4)C3=O)cccc12` [Example 468, 2-(3-(2-((1,5-dimethyl-1H-pyrazol-3-yl)amino)-5-methylpyrimidin-4-yl)-1H-indol-7-yl)-4-(1,1-dioxido-3,6-dihydro-2H-thiopyran-4-yl)isoindolin-1-one] and `Cc1cncc(-c2cccc3c2CN(c2cccc4c(-c5nc(Nc6cc(C)n(C)n6)ncc5C)c[nH]c24)C3=O)c1` [Example 477, 2-(3-(2-((1,5-dimethyl-1H-pyrazol-3-yl)amino)-5-methylpyrimidin-4-yl)-1H-indol-7-yl)-4-(5-methylpyridin-3-yl)isoindolin-1-one] cannot be ordered by IC50: less than 10 nM for the first, less than 10 nM for the second.

`Cc1cnc(Nc2cc(C)n(C)n2)nc1-c1c[nH]c2c(N3Cc4c(cccc4-c4ccc(C#N)nc4)C3=O)cccc12` [Example 470, 5-(2-(3-(2-((1,5-dimethyl-1H-pyrazol-3-yl)amino)-5-methylpyrimidin-4-yl)-1H-indol-7-yl)-1-oxoisoindolin-4-yl)picolinonitrile] and `Cc1cnc(Nc2cc(C)n(C)n2)nc1-c1c[nH]c2c(N3Cc4c(cccc4-c4ccc(C(N)=O)nc4)C3=O)cccc12` [Example 474, 5-(2-(3-(2-((1,5-dimethyl-1H-pyrazol-3-yl)amino)-5-methylpyrimidin-4-yl)-1H-indol-7-yl)-1-oxoisoindolin-4-yl)picolinamide] cannot be ordered by IC50: less than 10 nM for the first, less than 10 nM for the second.

`Cc1cnc(Nc2cc(C)n(C)n2)nc1-c1c[nH]c2c(N3Cc4c(cccc4-c4ccnc(C(N)=O)c4)C3=O)cccc12` [Example 473, 4-(2-(3-(2-((1,5-dimethyl-1H-pyrazol-3-yl)amino)-5-methylpyrimidin-4-yl)-1H-indol-7-yl)-1-oxoisoindolin-4-yl)picolinamide] and `CNc1cc(-c2cccc3c2CN(c2cccc4c(-c5nc(Nc6cc(C)n(C)n6)ncc5C)c[nH]c24)C3=O)ccn1` [Example 476, 2-(3-(2-((1,5-dimethyl-1H-pyrazol-3-yl)amino)-5-methylpyrimidin-4-yl)-1H-indol-7-yl)-4-(2-(methylamino)pyridin-4-yl)isoindolin-1-one] cannot be ordered by IC50: less than 10 nM for the first, less than 10 nM for the second.

`Cc1cnc(Nc2cc(C)n(C)n2)nc1-c1c[nH]c2c(N3Cc4c(cccc4-c4ccnc(N(C)C)c4)C3=O)cccc12` [Example 475, 2-(3-(2-((1,5-dimethyl-1H-pyrazol-3-yl)amino)-5-methylpyrimidin-4-yl)-1H-indol-7-yl)-4-(2-(dimethylamino)pyridin-4-yl)isoindolin-1-one] and `Cc1cnc(Nc2cc(C)n(C)n2)nc1-c1c[nH]c2c(N3Cc4c(-c5ccnc(N(C)C)c5)ccc(F)c4C3=O)cccc12` [Example 483, 2-(3-(2-((1,5-dimethyl-1H-pyrazol-3-yl)amino)-5-methylpyrimidin-4-yl)-1H-indol-7-yl)-4-(2-(dimethylamino)pyridin-4-yl)-7-fluoroisoindolin-1-one] cannot be ordered by IC50: less than 10 nM for the first, less than 10 nM for the second.

`Cc1cnc(Nc2cc(C)n(C)n2)nc1-c1c[nH]c2c(N3Cc4c(cccc4-c4cncc(F)c4)C3=O)cccc12` [Example 478, 2-(3-(2-((1,5-dimethyl-1H-pyrazol-3-yl)amino)-5-methylpyrimidin-4-yl)-1H-indol-7-yl)-4-(5-fluoropyridin-3-yl)isoindolin-1-one] and `Cc1cnc(Nc2cc(C)n(C)n2)nc1-c1c[nH]c2c(N3Cc4c(-c5cncc(F)c5)ccc(F)c4C3=O)cccc12` [Example 484, 2-(3-(2-((1,5-dimethyl-1H-pyrazol-3-yl)amino)-5-methylpyrimidin-4-yl)-1H-indol-7-yl)-7-fluoro-4-(5-fluoropyridin-3-yl)isoindolin-1-one] cannot be ordered by IC50: less than 10 nM for the first, less than 10 nM for the second.

`Cc1cc(-c2cccc3c2CN(c2cccc4c(-c5nc(Nc6cc(C)n(C)n6)ncc5C)c[nH]c24)C3=O)cc(C)n1` [Example 479, 2-(3-(2-((1,5-dimethyl-1H-pyrazol-3-yl)amino)-5-methylpyrimidin-4-yl)-1H-indol-7-yl)-4-(2,6-dimethylpyridin-4-yl)isoindolin-1-one] and `COc1cc(-c2ccc(F)c3c2CN(c2cccc4c(-c5nc(Nc6cc(C)n(C)n6)ncc5C)c[nH]c24)C3=O)ccn1` [Example 481, 2-(3-(2-((1,5-dimethyl-1H-pyrazol-3-yl)amino)-5-methylpyrimidin-4-yl)-1H-indol-7-yl)-7-fluoro-4-(2-methoxypyridin-4-yl)isoindolin-1-one] cannot be ordered by IC50: less than 10 nM for the first, less than 10 nM for the second.

`Cc1cnc(Nc2cc(C)n(C)n2)nc1-c1c[nH]c2c(N3Cc4c(-c5ccncc5)ccc(F)c4C3=O)cccc12` [Example 480, 2-(3-(2-((1,5-dimethyl-1H-pyrazol-3-yl)amino)-5-methylpyrimidin-4-yl)-1H-indol-7-yl)-7-fluoro-4-(pyridin-4-yl)isoindolin-1-one] and `CNc1cc(-c2ccc(F)c3c2CN(c2cccc4c(-c5nc(Nc6cc(C)n(C)n6)ncc5C)c[nH]c24)C3=O)ccn1` [Example 482, 2-(3-(2-((1,5-dimethyl-1H-pyrazol-3-yl)amino)-5-methylpyrimidin-4-yl)-1H-indol-7-yl)-7-fluoro-4-(2-(methylamino)pyridin-4-yl)isoindolin-1-one] cannot be ordered by IC50: less than 10 nM for the first, less than 10 nM for the second.
